Legend:
Test in all cases: Glycosidase inhibition, Table 6 (Laboratory 1)
Type in all cases: biochemical
α-D-glucosidase (rice) = α-D-glucosidase (rice) (Oryza sativa subsp. japonica, UniProt Q653V7)
[1] = target: T1, amyloglucosidase (from A. niger) (Aspergillus niger, UniProt P69328)
T1 construct: purchased Sigma-Aldrich Co
Text: (§1) The enzymes α-D-glucosidase (from yeast), β-D-glucosidases (from almond and bovine liver), α-D-galactosidase (from coffee beans), β-D-galactosidase (from bovine liver), α-D-mannosidase (from Jack bean), β-D-mannosidase (from snail), α-L-rhamnosidase (from Penicillium decumbens), α-L-fucosidase (from bovine kidney), trehalase (from porcine kidney), β-D-glucuronidases (from E. coli and bovine liver), amyloglucosidase (from A. niger), para-nitrophenyl glycosides, and various disaccharides were purchased from Sigma-Aldrich Co. (St. Louis, MO, USA).
(§2) Brush border membranes were prepared from the rat small intestine according to the method of Kessler et al., and were assayed at pH 6.8 for rat intestinal maltase using maltose. For rat intestinal maltase, porcine kidney trehalase, and A. niger amyloglucosidase activities, the reaction mixture contained maltose (25 mM) and the appropriate amount of enzyme, and the incubations were performed for 10–30 min at 37 °C. The reaction was stopped by heating at 100 °C for 3 min. After centrifugation (600× g; 10 min), the resulting reaction mixture was added to the Glucose CII-test Wako (Wako Pure Chemical Ind., Osaka, Japan). The absorbance at 505 nm was measured to determine the amount of the released D-glucose. Other glycosidase activities were determined using an appropriate para-nitrophenyl glycoside as substrate at the optimum pH of each enzyme. The reaction mixture contained the substrate (2 mM) and the appropriate amount of enzyme. The reaction was stopped by the addition of Na2CO3 (400 mM). The released para-nitrophenol was measured spectrometrically at 400 nm. All reactions run in methanol.

[2] = target: T2, α,α-trehalase (porcine kidney) (Sus scrofa, UniProt I3LIR5)
T2 construct: purchased Sigma-Aldrich Co
T2 sequence (I3LIR5 24-583): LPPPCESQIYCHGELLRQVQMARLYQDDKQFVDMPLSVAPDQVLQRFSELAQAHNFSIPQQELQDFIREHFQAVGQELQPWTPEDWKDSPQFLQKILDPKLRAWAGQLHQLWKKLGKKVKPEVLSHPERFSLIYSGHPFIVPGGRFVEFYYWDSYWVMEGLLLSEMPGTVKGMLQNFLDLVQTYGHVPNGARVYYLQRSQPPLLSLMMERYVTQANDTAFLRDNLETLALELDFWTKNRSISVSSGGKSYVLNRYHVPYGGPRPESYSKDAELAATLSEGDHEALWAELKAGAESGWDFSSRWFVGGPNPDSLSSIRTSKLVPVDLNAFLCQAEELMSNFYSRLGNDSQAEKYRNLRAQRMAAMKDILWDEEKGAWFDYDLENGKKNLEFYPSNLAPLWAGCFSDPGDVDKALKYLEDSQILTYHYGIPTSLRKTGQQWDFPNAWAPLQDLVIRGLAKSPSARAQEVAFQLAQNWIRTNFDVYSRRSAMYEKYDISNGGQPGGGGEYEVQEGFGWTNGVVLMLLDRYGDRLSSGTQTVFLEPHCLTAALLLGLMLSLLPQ
Text: as §1, §2

[3] = target: T3, α-D-galactosidase (from coffee beans) (Coffea arabica, UniProt Q42656)
T3 construct: purchased Sigma-Aldrich Co
Text: as §1, §2

[4] = target: T4, α-D-glucosidase (from yeast) (Saccharomyces cerevisiae, UniProt P53341)
T4 construct: purchased Sigma-Aldrich Co
Text: as §1, §2

[5] = system: α-D-glucosidase (rat intestinal maltase)
Text: as §1, §2

[6] = target: T5, α-L-fucosidase (from bovine kidney) (Bos taurus, UniProt Q2KIM0)
T5 construct: purchased Sigma-Aldrich Co
T5 sequence (Q2KIM0 23-468): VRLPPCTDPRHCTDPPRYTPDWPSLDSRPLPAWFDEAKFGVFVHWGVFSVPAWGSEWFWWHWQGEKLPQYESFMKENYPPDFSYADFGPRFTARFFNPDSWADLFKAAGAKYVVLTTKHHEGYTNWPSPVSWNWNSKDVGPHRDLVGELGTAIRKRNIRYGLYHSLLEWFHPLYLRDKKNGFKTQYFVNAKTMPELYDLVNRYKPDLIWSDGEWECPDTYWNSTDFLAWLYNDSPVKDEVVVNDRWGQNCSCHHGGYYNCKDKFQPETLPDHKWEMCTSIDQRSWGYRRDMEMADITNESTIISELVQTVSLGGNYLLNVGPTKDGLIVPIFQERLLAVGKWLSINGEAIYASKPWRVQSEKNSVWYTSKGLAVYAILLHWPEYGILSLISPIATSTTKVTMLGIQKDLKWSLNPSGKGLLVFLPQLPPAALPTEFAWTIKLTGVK
Text: as §1, §2

[7] = system: α-L-rhamnosidase (from Penicillium decumbens)
Text: as §1, §2

β-D-glucosidase (almond) = system: β-D-glucosidase (almond)
Text: as §1, §2

[8] = system: β-D-glucosidase (bovine liver)
Text: as §1, §2

[9] = target: T6, β-D-glucuronidase (E. coli) (Escherichia coli, UniProt P05804)
T6 construct: purchased Sigma-Aldrich Co
Text: as §1, §2

[10] = system: β-D-glucuronidase (bovine liver)
Text: as §1, §2

[11] = system: β-D-mannosidase (from snail)
Text: as §1, §2

[12] = target: T7, β-D-galactosidase (bovine liver) (Bos taurus, UniProt Q58D55)
T7 sequence (Q58D55 28-653): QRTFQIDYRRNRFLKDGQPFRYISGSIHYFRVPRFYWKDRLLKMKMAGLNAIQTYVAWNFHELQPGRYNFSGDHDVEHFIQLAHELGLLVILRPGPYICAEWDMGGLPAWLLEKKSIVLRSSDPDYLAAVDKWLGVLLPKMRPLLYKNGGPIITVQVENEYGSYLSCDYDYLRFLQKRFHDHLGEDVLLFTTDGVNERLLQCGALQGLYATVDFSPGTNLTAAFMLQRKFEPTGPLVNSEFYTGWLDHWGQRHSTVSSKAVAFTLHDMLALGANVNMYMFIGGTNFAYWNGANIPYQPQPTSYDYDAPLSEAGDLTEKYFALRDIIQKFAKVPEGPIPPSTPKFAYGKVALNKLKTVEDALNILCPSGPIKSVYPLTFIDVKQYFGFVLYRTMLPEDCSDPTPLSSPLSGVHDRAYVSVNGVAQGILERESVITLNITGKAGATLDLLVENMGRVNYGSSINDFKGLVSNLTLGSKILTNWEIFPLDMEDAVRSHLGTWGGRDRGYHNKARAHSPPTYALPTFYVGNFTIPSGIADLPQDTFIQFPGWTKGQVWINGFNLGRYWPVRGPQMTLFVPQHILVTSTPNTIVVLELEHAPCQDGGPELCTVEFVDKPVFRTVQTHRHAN
Text: as §1, §2

T4 sequence (P53341 whole entry): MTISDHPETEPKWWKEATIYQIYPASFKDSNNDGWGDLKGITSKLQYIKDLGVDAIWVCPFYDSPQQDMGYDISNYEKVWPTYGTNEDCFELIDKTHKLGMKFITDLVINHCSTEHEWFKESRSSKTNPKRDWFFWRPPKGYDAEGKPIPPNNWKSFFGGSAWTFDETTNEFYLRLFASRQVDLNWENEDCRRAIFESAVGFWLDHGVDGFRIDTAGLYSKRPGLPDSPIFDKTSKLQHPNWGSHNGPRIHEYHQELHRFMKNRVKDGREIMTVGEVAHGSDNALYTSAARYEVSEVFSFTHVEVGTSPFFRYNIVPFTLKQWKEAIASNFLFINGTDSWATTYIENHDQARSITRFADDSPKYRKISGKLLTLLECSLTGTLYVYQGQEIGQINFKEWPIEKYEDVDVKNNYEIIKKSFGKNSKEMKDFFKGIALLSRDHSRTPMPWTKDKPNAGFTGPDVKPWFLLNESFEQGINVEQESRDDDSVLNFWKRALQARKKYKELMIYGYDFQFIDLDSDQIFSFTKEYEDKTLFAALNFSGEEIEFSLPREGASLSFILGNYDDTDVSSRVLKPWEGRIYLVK
T3 sequence (Q42656 16-378): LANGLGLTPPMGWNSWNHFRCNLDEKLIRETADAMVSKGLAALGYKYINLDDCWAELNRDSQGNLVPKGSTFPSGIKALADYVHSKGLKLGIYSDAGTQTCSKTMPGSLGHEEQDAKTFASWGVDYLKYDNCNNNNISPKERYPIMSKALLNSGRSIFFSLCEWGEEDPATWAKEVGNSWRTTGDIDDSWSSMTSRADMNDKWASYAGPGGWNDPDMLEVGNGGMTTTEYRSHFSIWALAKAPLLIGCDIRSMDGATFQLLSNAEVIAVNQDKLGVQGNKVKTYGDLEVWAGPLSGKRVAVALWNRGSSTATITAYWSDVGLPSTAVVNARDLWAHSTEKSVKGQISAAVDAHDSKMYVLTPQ
α-D-glucosidase (rice), sequence (Q653V7 34-885): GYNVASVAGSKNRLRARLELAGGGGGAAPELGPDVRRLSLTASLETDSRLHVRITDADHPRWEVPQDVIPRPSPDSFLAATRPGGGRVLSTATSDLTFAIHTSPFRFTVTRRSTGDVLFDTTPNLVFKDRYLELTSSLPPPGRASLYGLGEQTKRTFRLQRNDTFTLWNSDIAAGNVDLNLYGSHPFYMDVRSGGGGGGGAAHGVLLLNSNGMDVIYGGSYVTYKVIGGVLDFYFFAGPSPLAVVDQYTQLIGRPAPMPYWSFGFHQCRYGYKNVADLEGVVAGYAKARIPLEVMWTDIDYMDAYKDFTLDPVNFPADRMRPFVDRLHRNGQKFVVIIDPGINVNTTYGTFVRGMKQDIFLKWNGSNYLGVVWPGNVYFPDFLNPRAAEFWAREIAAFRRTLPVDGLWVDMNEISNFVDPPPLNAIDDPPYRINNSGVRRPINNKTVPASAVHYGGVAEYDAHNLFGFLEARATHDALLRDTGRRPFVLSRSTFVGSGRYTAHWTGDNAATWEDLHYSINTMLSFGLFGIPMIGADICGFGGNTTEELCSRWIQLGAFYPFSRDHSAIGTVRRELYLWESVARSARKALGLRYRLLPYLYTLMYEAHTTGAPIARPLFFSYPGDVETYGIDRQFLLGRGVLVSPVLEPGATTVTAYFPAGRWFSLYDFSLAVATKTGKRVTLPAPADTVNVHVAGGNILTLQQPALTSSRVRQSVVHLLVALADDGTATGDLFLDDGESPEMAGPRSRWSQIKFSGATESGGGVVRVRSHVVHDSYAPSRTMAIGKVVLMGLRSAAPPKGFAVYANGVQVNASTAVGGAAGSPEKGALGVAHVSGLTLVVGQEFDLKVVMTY
T6 sequence (P05804 whole entry): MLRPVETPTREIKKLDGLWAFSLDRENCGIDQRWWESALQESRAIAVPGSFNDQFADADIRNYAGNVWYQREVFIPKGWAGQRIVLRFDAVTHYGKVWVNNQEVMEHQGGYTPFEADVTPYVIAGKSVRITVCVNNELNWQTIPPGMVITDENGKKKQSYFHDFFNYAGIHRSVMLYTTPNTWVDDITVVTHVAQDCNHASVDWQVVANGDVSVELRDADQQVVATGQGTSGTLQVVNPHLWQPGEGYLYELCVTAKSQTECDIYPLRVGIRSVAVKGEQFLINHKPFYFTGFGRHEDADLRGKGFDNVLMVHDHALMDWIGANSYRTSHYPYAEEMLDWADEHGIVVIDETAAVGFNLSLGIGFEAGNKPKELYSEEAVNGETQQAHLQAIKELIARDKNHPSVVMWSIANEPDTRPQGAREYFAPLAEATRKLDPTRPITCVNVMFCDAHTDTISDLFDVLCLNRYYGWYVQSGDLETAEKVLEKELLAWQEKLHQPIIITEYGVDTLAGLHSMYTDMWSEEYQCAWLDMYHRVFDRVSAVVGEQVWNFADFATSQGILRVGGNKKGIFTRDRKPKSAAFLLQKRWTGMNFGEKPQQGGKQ
T1 sequence (P69328 25-640): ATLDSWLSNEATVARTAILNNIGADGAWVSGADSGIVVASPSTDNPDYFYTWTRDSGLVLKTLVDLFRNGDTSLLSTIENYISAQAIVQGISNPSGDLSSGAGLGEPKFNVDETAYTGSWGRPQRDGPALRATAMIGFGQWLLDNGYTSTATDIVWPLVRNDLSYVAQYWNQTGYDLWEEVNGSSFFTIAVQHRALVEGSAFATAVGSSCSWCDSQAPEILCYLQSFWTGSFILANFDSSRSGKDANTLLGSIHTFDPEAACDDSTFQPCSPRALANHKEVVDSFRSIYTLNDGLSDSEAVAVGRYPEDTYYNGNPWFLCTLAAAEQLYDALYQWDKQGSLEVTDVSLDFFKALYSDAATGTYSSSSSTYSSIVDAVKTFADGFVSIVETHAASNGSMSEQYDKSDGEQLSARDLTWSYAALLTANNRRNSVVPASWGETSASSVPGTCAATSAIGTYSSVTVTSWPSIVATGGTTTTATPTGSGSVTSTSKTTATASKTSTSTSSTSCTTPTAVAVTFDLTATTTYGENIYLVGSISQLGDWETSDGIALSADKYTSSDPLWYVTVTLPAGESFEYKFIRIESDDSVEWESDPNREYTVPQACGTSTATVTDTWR

| Molecule | inhibition at 1000 µM (α-D-glucosidase (rice)) [%] | inhibition at 1000 µM [1] [%] | inhibition at 1000 µM [2] [%] | inhibition at 1000 µM [3] [%] | inhibition at 1000 µM [4] [%] | α-D-Glucosidase Rat Intestinal Maltase, inhibition % at 1000 μM [5] | inhibition at 1000 µM [6] [%] | α-L-Rhamnosidase P. decumbens, inhibition % at 1000 μM [7] | β-D-Glucosidase Almond, inhibition % at 1000 μM (β-D-glucosidase (almond)) | β-D-Glucosidase Bovine Liver, inhibition % at 1000 μM [8] | inhibition at 1000 µM [9] [%] | β-D-Glucuronidase Bovine Liver, inhibition % at 1000 μM [10] | β-D-Mannosidase Snail, inhibition % at 1000 μM [11] | α-D-Glucosidase Rat Intestinal Maltase, inhibition % at 100 μM [5] | α-L-Rhamnosidase P. decumbens, inhibition % at 100 μM [7] | β-D-Glucosidase Almond, inhibition % at 100 μM (β-D-glucosidase (almond)) | β-D-Glucosidase Bovine Liver, inhibition % at 100 μM [8] | β-D-Glucuronidase Bovine Liver, inhibition % at 100 μM [10] | β-D-Mannosidase Snail, inhibition % at 100 μM [11] | other results |
| --- | --- | --- | --- | --- | --- | --- | --- | --- | --- | --- | --- | --- | --- | --- | --- | --- | --- | --- | --- | --- |
| OC1O[C@@H]2[C@H]([C@H]1O)N(Cc1ccccc1)C[C@H]2O (stereo partly drawn) [Compound 4, N-Benzyl-3,6-dideoxy-3,6-imino-D-gulofuranose] | 1.3 | 0.2 | 0 | 1.8 | 0 | ^a NI ^b (22.4%) | 0.4 | ^a NI ^b (0%) | ^a NI ^b (27.4%) | ^a NI ^b (16.4%) | 7 | ^a NI ^b (7.0%) | ^a NI ^b (1.0%) |  |  |  |  |  |  |  |
| N[C@@H](Cc1ccc(B(O)O)cc1)C(=O)O [^10B-BPA, reference compound] |  |  |  |  |  |  |  |  |  |  |  |  |  | ^c NI ^d (0%) | ^c NI ^d (0%) | ^c NI ^d (0%) | ^c NI ^d (14.2%) | ^c NI ^d (0%) | ^c NI ^d (0.3%) | α-D-Glucosidase Rice, inhibition % at 100 μM (α-D-glucosidase (rice); 100 μM): ^c NI ^d (0%); Amyloglucosidase A. niger, inhibition % at 100 μM ([1]; 100 μM): ^c NI ^d (0%); α,α-Trehalase Porcine Kidney, inhibition % at 100 μM ([2]; 100 μM): ^c NI ^d (0%); α-D-Galactosidase Coffee Beans, inhibition % at 100 μM ([3]; 100 μM): ^c NI ^d (1.2%); α-D-Glucosidase Yeast, inhibition % at 100 μM ([4]; 100 μM): ^c NI ^d (0%); α-L-Fucosidase Bovine Kidney, inhibition % at 100 μM ([6]; 100 μM): ^c NI ^d (0%); β-D-Galactosidase Bovine Liver, inhibition % at 100 μM ([12]; 100 μM): ^c NI ^d (0%); β-D-Glucuronidase E. coli, inhibition % at 100 μM ([9]; 100 μM): ^c NI ^d (2.4%) |
| borocaptate sodium [BSH, reference compound] |  |  |  |  |  | ^a NI ^b (0%) |  | ^a NI ^b (0.2%) | ^a NI ^b (0%) | ^a NI ^b (15%) |  | ^a NI ^b (19.6%) | ^a NI ^b (19.2%) |  |  |  |  |  |  | α-D-Glucosidase Rice, inhibition % at 1000 μM (α-D-glucosidase (rice); 1000 μM): ^a NI ^b (0%); Amyloglucosidase A. niger, inhibition % at 1000 μM ([1]; 1000 μM): ^a NI ^b (0%); α,α-Trehalase Porcine Kidney, inhibition % at 1000 μM ([2]; 1000 μM): ^a NI ^b (4.2%); α-D-Galactosidase Coffee Beans, inhibition % at 1000 μM ([3]; 1000 μM): ^a NI ^b (12.3%); α-D-Glucosidase Yeast, inhibition % at 1000 μM ([4]; 1000 μM): ^a NI ^b (6.9%); α-L-Fucosidase Bovine Kidney, inhibition % at 1000 μM ([6]; 1000 μM): ^a NI ^b (0%); β-D-Galactosidase Bovine Liver, inhibition % at 1000 μM ([12]; 1000 μM): ^a NI ^b (0%); β-D-Glucuronidase E. coli, inhibition % at 1000 μM ([9]; 1000 μM): ^a NI ^b (6%) |
| N[C@@H](Cc1ccc(B(O)O)cc1)C(=O)O [BPA, 4-borono-L-phenylalanine, reference compound] |  |  |  |  |  |  |  |  |  |  |  |  |  | ^c NI ^d (0%) | ^c NI ^d (0%) | ^c NI ^d (0%) | ^c NI ^d (0%) | ^c NI ^d (7.4%) | ^c NI ^d (2.1%) | inhibition at 100 µM [4]: 0%; inhibition at 100 µM [12]: 10.9% |
| OC[C@H](O)[C@@H]1[C@H](O)[C@H](O)CN1Cc1ccc(B(O)O)cc1 [para 8, N-(4-Methylphenylboronic acid)-1,4-dideoxy-1,4-imino-L-gulitol] | 8.2 | 3.6 | 0 | 1.4 | 5.6 | ^a NI ^b (10.5%) | 1.7 | ^a NI ^b (26.3%) | ^a NI ^b (28%) | ^a NI ^b (27.1%) | 22.9 | ^a NI ^b (6.0%) | ^a NI ^b (6.9%) |  |  |  |  |  |  |  |
| OB(O)c1ccc(CN2CC(O)C3OC(O)C(O)C32)cc1 [para 7, N-(4-Methylphenylboronic acid)-3,6-dideoxy-3,6-imino-D-gulofuranose] | 0 | 2.7 | 0 | 0 | 0 | ^a NI ^b (0%) | 0.8 | ^a NI ^b (15.8%) | ^a NI ^b (43.6%) | ^a NI ^b (38.8%) | 17.8 | ^a NI ^b (3.5%) | ^a NI ^b (4.1%) |  |  |  |  |  |  |  |
| OC[C@H](O)[C@@H]1[C@H](O)[C@H](O)CN1Cc1ccccc1 [Compound 5, N-Benzyl-1,4-dideoxy-1,4-imino-L-gulitol] |  |  |  |  |  |  |  |  |  |  |  |  |  | ^c NI ^d (12.9%) | ^c NI ^d (1.5%) | ^c NI ^d (0%) | ^c NI ^d (3.3%) | ^c NI ^d (3.7%) | ^c NI ^d (6.9%) | inhibition at 100 µM (α-D-glucosidase (rice)): 0%; inhibition at 100 µM [1]: 2.1%; inhibition at 100 µM [2]: 0%; inhibition at 100 µM [3]: 1.5%; inhibition at 100 µM [4]: 2.9%; inhibition at 100 µM [12]: 0%; inhibition at 100 µM [9]: 0% |

From publication PMC12472391, “Borylated Five-Membered Ring Iminosugars: Synthesis, Spectroscopic Analysis, and Biological Evaluation for Glycosidase Inhibition and Anticancer Properties for Application in Boron Neutron Capture Therapy (BNCT)—Part 1” (Pharmaceuticals, 2025)
